Assay results: the CheMixHub viscosity set

Assay: xn = mol fraction of the nth substance listed

CC(=O)N(C)C + CN(C)C=O
viscosity [mPa·s], 101 kPa
Conditions | 298.15 K | 308.15 K | 318.15 K
x1 = 0.05 | 0.809 | 0.718 | 0.642
x1 = 0.1062 | 0.816 | 0.724 | 0.647
x1 = 0.15 | 0.822 | 0.729 | 0.652
x1 = 0.2171 | 0.831 | 0.737 | 0.658
x1 = 0.26 | 0.837 | 0.742 | 0.662
x1 = 0.3094 | 0.843 | 0.747 | 0.666
x1 = 0.35 | 0.849 | 0.752 | 0.67
x1 = 0.405 | 0.856 | 0.758 | 0.675
x1 = 0.455 | 0.863 | 0.763 | 0.679
x1 = 0.5042 | 0.87 | 0.769 | 0.684
x1 = 0.55 | 0.876 | 0.774 | 0.688
x1 = 0.6071 | 0.883 | 0.781 | 0.694
x1 = 0.655 | 0.89 | 0.786 | 0.698
x1 = 0.714 | 0.898 | 0.793 | 0.704
x1 = 0.75 | 0.903 | 0.797 | 0.707
x1 = 0.7968 | 0.909 | 0.803 | 0.712
x1 = 0.85 | 0.916 | 0.809 | 0.717
x1 = 0.9112 | 0.925 | 0.816 | 0.723
x1 = 0.95 | 0.93 | 0.82 | 0.727

CC(=O)N(C)C + CCCCn1cc[n+](C)c1.F[B-](F)(F)F
101.33 kPa
Conditions | viscosity [mPa·s]
293.15 K, x2 = 0.8488 | 74.2
293.15 K, x2 = 0.9175 | 95.64
298.15 K, x2 = 0.9175 | 80.5
308.15 K, x2 = 0.437 | 7.88
323.15 K, x2 = 0.7419 | 9.78

CC(=O)N1CCOCC1 + CC(C)O
viscosity [mPa·s], 101 kPa
Conditions | 293.15 K | 303.15 K | 313.15 K | 323.15 K
x1 = 0.0522 | 3.709 | 2.981 | 2.398 | 2.058
x1 = 0.1274 | 4.822 | 4.027 | 3.33 | 2.819
x1 = 0.2153 | 6.051 | 5.18 | 4.35 | 3.754
x1 = 0.2813 | 6.792 | 5.862 | 4.934 | 4.274
x1 = 0.3169 | 7.055 | 6.069 | 5.112 | 4.418
x1 = 0.3909 | 7.575 | 6.548 | 5.454 | 4.686
x1 = 0.4569 | 7.956 | 6.872 | 5.68 | 4.85
x1 = 0.4999 | 8.044 | 6.922 | 5.666 | 4.794
x1 = 0.5444 | 8.301 | 7.14 | 5.816 | 4.903
x1 = 0.6113 | 8.421 | 7.202 | 5.778 | 4.799
x1 = 0.6342 | 8.356 | 7.116 | 5.656 | 4.656
x1 = 0.6888 | 8.479 | 7.191 | 5.651 | 4.597
x1 = 0.7522 | 8.573 | 7.229 | 5.593 | 4.478
x1 = 0.7976 | 8.575 | 7.191 | 5.487 | 4.328
x1 = 0.8555 | 8.612 | 7.176 | 5.389 | 4.174
x1 = 0.9231 | 8.559 | 7.065 | 5.172 | 3.892
x2 = 0.0188 | 8.649 | 7.104 | 5.163 | 3.893

CC(=O)N(C)C + CCCCO
viscosity [mPa·s]
Conditions | 298.15 K | 303.15 K | 313.15 K
100 kPa, x1 = 0.0565 | 2.252 | – | 1.598
100 kPa, x1 = 0.1063 | 2.049 | – | 1.477
100 kPa, x1 = 0.2094 | 1.716 | – | 1.287
100 kPa, x1 = 0.3134 | 1.503 | – | 1.15
100 kPa, x1 = 0.4106 | 1.361 | – | 1.063
100 kPa, x1 = 0.5083 | 1.263 | – | 0.9979
100 kPa, x1 = 0.6042 | 1.179 | – | 0.9502
100 kPa, x1 = 0.7096 | 1.119 | – | 0.9082
100 kPa, x1 = 0.8046 | 1.061 | – | 0.8651
100 kPa, x1 = 0.9078 | 0.9922 | – | 0.8128
100 kPa, x1 = 0.9575 | 0.9601 | – | 0.7894
101 kPa, x1 = 0.0968 | – | 1.862 | –
101 kPa, x1 = 0.1997 | – | 1.585 | –
101 kPa, x1 = 0.2976 | – | 1.43 | –
101 kPa, x1 = 0.4 | – | 1.281 | –
101 kPa, x1 = 0.4956 | – | 1.181 | –
101 kPa, x1 = 0.599 | – | 1.097 | –
101 kPa, x1 = 0.6978 | – | 1.029 | –
101 kPa, x1 = 0.7867 | – | 0.975 | –
101 kPa, x1 = 0.9006 | – | 0.917 | –

CC(=O)N1CCOCC1 + CCO
viscosity [mPa·s], 101 kPa
Conditions | 293.15 K | 303.15 K | 313.15 K | 323.15 K
x1 = 0.0563 | 1.847 | 1.495 | 1.153 | 0.928
x1 = 0.1288 | 2.747 | 2.302 | 1.832 | 1.518
x1 = 0.2164 | 3.689 | 3.134 | 2.511 | 2.096
x1 = 0.2843 | 4.374 | 3.728 | 2.983 | 2.484
x1 = 0.3147 | 4.656 | 3.974 | 3.174 | 2.639
x1 = 0.3944 | 5.318 | 4.533 | 3.594 | 2.966
x1 = 0.4512 | 5.718 | 4.858 | 3.819 | 3.122
x1 = 0.4957 | 6.016 | 5.101 | 3.983 | 3.232
x1 = 0.5253 | 6.179 | 5.227 | 4.056 | 3.269
x1 = 0.5832 | 6.499 | 5.472 | 4.199 | 3.343
x1 = 0.6341 | 6.728 | 5.638 | 4.275 | 3.358
x1 = 0.6813 | 6.984 | 5.832 | 4.387 | 3.413
x1 = 0.7348 | 7.169 | 5.948 | 4.407 | 3.369
x1 = 0.7921 | 7.459 | 6.164 | 4.522 | 3.417
x1 = 0.8452 | 7.653 | 6.289 | 4.554 | 3.434
x1 = 0.9127 | 8.019 | 6.569 | 4.788 | 3.615
x1 = 0.9734 | 8.395 | 6.932 | 5.046 | 3.797
